{
  "source": "patent US6884600B1",
  "about": "“Protein phosphatase-1 catalytic subunit interactions” (Medical Research Council London, priority 1996, dated 2005)",
  "key": {"PP1GL": {"tested_on": "PP1GL", "experiment": "Phosphorylase phosphatase activity of PP1GL (hepatic glycogen particles)", "format": "biochemical, rat", "procedure": "Hepatic glycogen particles were diluted in assay buffer to 0.6 phosphorylase phosphatase (PhP) mU per ml, incubated for 15 minutes at 30° C. with GM-(G63-T93) (closed circles), GM-(G63-K80) (open circles) or GM-(G63-N75) (closed triangles) and assayed as described in Example 1. The open triangles show the effect of GM-(G63-N75) which had been phosphorylated at Ser67 by PKA (pGM-(G63-N75)). Similar results were obtained in four experiments.\n(A) Hepatic glycogen protein particles containing PP1-GL were diluted and incubated for 15 min at 30° C. with the indicated concentrations of either M110[M1-F38] (open circles) or M110[M1-K35] (closed circles) and the phosphatase reactions were initiated by addition of ^32P-labelled glycogen phosphorylase. The results are expressed as a percentage of the activity determined in control incubations where the M110 peptides were omitted. Similar results were obtained in three separate experiments. (B) The experiment was carried out as in (A), except that the peptide GM[G63-N75] (“wild type”, WT) and variants in which either Val 66 (V66A) (closed triangles) or Phe 68 (F68A) (closed circles) were changed to Ala, were used instead of the M110 peptides. Similar results were obtained in three separate experiments.\n(§1) The myosin-associated form of PP1 (PP1M) was from chicken gizzard and the glycogen-associated form of PP1 (PP1G) from rabbit skeletal muscle. The β isoform of PP1c was released from PP1G by incubation for 2 hours in 2M LiBr, then purified by gel-filtration on a 30×1 cm column of Superose 12 (Pharmacia, Milton Keynes, U.K.) in the presence of 0.5M LiBr. Glycogen protein particles from rat liver were used as the source of hepatic PP1G Digoxygenin-labelled PP1c (γ1-isoform, hereafter termed PP1) was prepared as in [9]. GL was expressed in E. coli as a glutathione-S-transferase (GST) fusion protein [7], termed GST-GL. The catalytic subunit of PP2A from bovine heart (PP2AC) was provided by Dr R. MacKintosh in this Unit. The phosphorylatable myosin light chain (MLC20) and heavy meromyosin from chicken gizzard were a gift from Dr M. Ikebe (Case Western Reserve University, Cleveland, USA). Thrombin and benzamidine-Agarose were purchased from Sigma (Poole, UK).\n(§2) ^32P-labelled rabbit skeletal muscle phosphorylase a (containing 1.0 mol phosphate per mol subunit) was prepared by phosphorylation with phosphorylase kinase, ^32P-labelled rabbit skeletal muscle glycogen synthase (containing 1.5 mol/mol subunit in the sites 3 region) was prepared by phosphorylation with glycogen synthase kinase-3 [24]). ^32P-labelled chicken gizzard MLC20 and ^32P-labelled chicken gizzard heavy meromyosin (containing 1.0 mol phosphate per mol subunit) were prepared by phosphorylation with smooth muscle myosin light chain kinase. The dephosphorylation of phosphorylase a (10 μM), glycogen synthase (1 μM) and MLC20 (1 μM) and heavy meromyosin (1 μM) was carried out as in [24]. One unit of activity (U) was that amount which released […] of phosphate in one minute.\n(§3) PP1c was isolated from the rabbit skeletal muscle PP1-GM complex as described previously (Johnson et al, 1996). Glycogen particles isolated from rat liver (Schelling el al, 1988) served as the source of PP1-GL. The dephosphorylation of glycogen phosphorylase (10 μM) and the isolated MLC20 of smooth muscle myosin (1 μM) by PP1c was carried out as described previously (Cohen et al., 1988; Alessi et al., 1992)."}, "PP1c [1]": {"target": "T1, PP1c (Oryctolagus cuniculus, UniProt P62143)", "T1 construct": "from tissue; host or cells: rabbit skeletal muscle (PP1G dissociated with LiBr)", "T1 sequence (P62143 whole entry)": "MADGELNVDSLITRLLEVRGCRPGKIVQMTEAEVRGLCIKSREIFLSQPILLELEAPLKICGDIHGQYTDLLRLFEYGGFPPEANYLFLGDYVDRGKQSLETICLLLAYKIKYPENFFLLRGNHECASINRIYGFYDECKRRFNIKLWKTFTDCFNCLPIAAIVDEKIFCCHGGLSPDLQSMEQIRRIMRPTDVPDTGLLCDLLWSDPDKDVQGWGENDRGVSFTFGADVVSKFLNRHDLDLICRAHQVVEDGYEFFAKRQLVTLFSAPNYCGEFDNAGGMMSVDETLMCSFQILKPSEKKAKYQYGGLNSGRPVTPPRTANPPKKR", "experiment": "Phosphorylase phosphatase activity of PP1c", "format": "biochemical, rabbit", "procedure": "(§4) A,B; Effects of M110-(M1-E309) (closed circles), M110-(M1-F38) (open circles) and M110-(D39-E309) (open triangles) on the MLC20 phosphatase […] and phosphorylase phosphatase (B) activities of PP1c were measured after incubating PP1c for 15 minutes at 30° C. with each fragment. The results are presented as a percentage of those obtained in experiments where the M110 fragments were omitted.\n(§5) C,D; The effect of M110-(M1-A150) (open circles) and M110-(L24-Y496) (closed circles) on the MLC20 phosphatase (C) and phosphorylase phosphatase (D) activities of PP1c were measured as in A,B.\n(B) The phosphorylase phosphatase activity of PP1c was assayed as in A in the presence or absence of 1 μM GM-(G63-T93) and 1.0 nM M110-(M1-E309). The results are presented (SEM for three experiments) as a percentage of the PP1c activity measured in the absence of GM-(63-T93), M110-(M1-F38) or M110-(M1-E309).\nas §1, §2, §3"}, "PP1 and PP2A": {"tested_on": "PP1 and PP2A", "conditions": "refs [17], [19]; cited from earlier work"}, "PP1c [2]": {"target": "T1, PP1c", "experiment": "Glycogen synthase phosphatase activity of PP1c", "format": "biochemical, rabbit", "procedure": "The glycogen synthase phosphatase activity of PP1c was measured after a 15 minute incubation at 30° C. with the indicated concentrations of M110-(M1-F38) and M110-(M1-E309). Similar results were obtained in three different experiments.\nas §2"}, "PP1c [3]": {"target": "T1, PP1c", "experiment": "Dephosphorylation of heavy meromyosin by PP1c", "format": "biochemical, rabbit", "conditions": "data not shown", "procedure": "as §2"}, "PP1c [4]": {"target": "T1, PP1c", "experiment": "MLC20 (myosin P-light chain) phosphatase activity of PP1c", "format": "biochemical", "procedure": "as §4, §5\n(A) The MLC20 phosphatase activity of PP1c was assayed after incubation for 15 minutes at 30° C. in the presence or absence of 1 μM GM-(G63-T93) and either 0.1 μM M110-(M1-F38) or 0.1 nM M110-(M1-E309).\n(1-38, open circles) or M110[M1-K35] (1-35, closed circles) were incubated with PP1c for 15 min at 30° C. and reactions started with the ^32P-labelled MLC20 substrate. The results are expressed as a % of the activity determined in control incubations where the M110 peptides were omitted (100%). Similar results were obtained in three separate experiments.\nas §1, §2, §3\n^32P-labelled myosin P-light chains containing 1.0 mol phosphate per mol subunit was prepared by phosphorylation with smooth muscle myosin light chain kinase. The dephosphorylation of myosin P-light chain (1 μM) was carried out as in [4] and one unit of activity (U) was that amount which catalysed the release of 1 μmole of phosphate in one min. When assaying PP1M in immunoprecipitates from the myofibrillar extracts, the tubes were shaken continuously and 3 nM okadaic acid was included to inhibit any PP2A present."}, "PP1c (γ1-isoform)": {"target": "PP1c (γ1-isoform) (Homo sapiens, UniProt P36873)", "sequence (P36873 whole entry, the tested form may be a part, canonical isoform)": "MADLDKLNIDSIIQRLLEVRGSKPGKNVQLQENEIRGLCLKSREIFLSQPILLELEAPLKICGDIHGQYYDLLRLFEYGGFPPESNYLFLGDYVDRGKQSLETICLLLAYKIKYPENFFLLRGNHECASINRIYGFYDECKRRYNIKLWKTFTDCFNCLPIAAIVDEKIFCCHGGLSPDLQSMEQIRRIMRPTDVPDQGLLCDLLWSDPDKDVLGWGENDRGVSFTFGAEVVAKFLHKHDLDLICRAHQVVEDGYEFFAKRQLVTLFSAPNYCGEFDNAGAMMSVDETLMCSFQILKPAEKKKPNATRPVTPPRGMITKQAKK", "experiment": "Far Western: GST-GM fusion proteins probed with digoxygenin-labelled PP1γ", "format": "binding", "conditions": "GST-fusion proteins on blot probed with digoxygenin-labelled PP1γ", "description": "GST-GM fusion proteins were electrophoresed on 10% SDS/polyacrylamide gels and stained with Coomassie blue (lanes 1-3) or, after transfer to nitrocellulose, probed with digoxygenin-labelled PP1γ (lanes 4-6) as in [9]. Lanes 1 and 4, GST-GM-(E2-D118); Lanes 2 and 5, GST-GM-(H100-P350); Lanes 3 and 6, GST. The positions of the marker proteins glycogen phosphorylase (97 kDa), bovine serum albumin (66 kDa), ovalbumin (43 kDa), carbonic anhydrase (29 kDa) and soybean trypsin inhibitor (20 kDa) are indicated.\nas §1, with “Thrombin and benzamidine-Agarose were purchased from Sigma (Poole, UK).” left out"}},
  "note": "pEC50: −log10 of the molar value. Where two headings read alike, the source gives them in different places. No end group written: not given here.",
  "data": [
    {"compound": "GM-(G63-N75): synthetic 13 residue peptide, residues 63-75 of GM (GRRVSFADNFGFN)", "values": [
      {"measurement": "effect on the phosphorylase phosphatase activity of PP1GL", "setting": "PP1GL; hepatic glycogen particles containing PP1-GL", "value": "increased the phosphorylase phosphatase activity of PP1GL, but were less effective than GM-(G63-T93)"},
      {"measurement": "effect on the phosphorylase phosphatase activity of PP1c", "setting": "PP1c [1]; at concentrations up to 10 μM", "value": "did not increase the phosphorylase phosphatase activity of PP1c significantly"}
    ]},
    {"compound": "CO[C@H]([C@H](O)CC(=O)[C@@H](C)[C@@H](O)CC[C@@H](C)[C@@H]1O[C@]2(CC[C@@H](C)[C@H](CC[C@H](C)C(C)=O)O2)CC[C@@H]1C)[C@H](OC(=O)C[C@@H](O)C1=C(C)C(=O)OC1=O)C(C)C", "note": "[tautomycin]", "values": [
      {"measurement": "relative potency as inhibitor of PP1 and PP2A", "setting": "PP1 and PP2A", "value": "a much more potent inhibitor of PP1 than PP2A"}
    ]},
    {"compound": "GM-(E81-T93): peptide generated by cleaving GM-(G63-T93) with Lys-C endoproteinase (DCWELPSASTTFD; UniProt Q16821 81-93, looked up, fragment)", "values": [
      {"measurement": "effect on the phosphorylase phosphatase activity of PP1GL", "setting": "PP1GL; at concentrations up to 10 μM", "value": "no effect"},
      {"measurement": "effect on the phosphorylase phosphatase activity of PP1c", "setting": "PP1c [1]; at concentrations up to 10 μM", "value": "no effect"}
    ]},
    {"compound": "C=C1[C@@H](O)[C@@H]2O[C@]3(CC[C@H](/C=C/[C@@H](C)[C@@H]4CC(C)=C[C@@]5(O[C@H](C[C@@](C)(O)C(=O)O)CC[C@H]5O)O4)O3)CC[C@H]2O[C@@H]1[C@@H](O)C[C@H](C)[C@H]1O[C@@]2(CCCCO2)CC[C@H]1C", "note": "[okadaic acid]", "values": [
      {"measurement": "relative potency as inhibitor of PP1 and PP2A", "setting": "PP1 and PP2A", "value": "a much more potent inhibitor of PP2A than PP1"}
    ]},
    {"compound": "MKMADAKQKRNEQLKRWIGSETDLEPPVVKRQKTKVKF [M110-(M1-F38)]", "values": [
      {"measurement": "effect on the dephosphorylation of glycogen synthase by PP1c", "setting": "PP1c [2]", "value": "greatly enhanced"},
      {"measurement": "displacement of GL from PP1c", "setting": "PP1GL", "value": "capable of displacing GL from PP1GL"},
      {"measurement": "increase in the phosphorylase phosphatase activity of PP1GL", "setting": "PP1GL; 10 μM peptide", "value": 3.5, "unit": "fold"},
      {"measurement": "effect on the dephosphorylation of heavy meromyosin by PP1c", "setting": "PP1c [3]", "value": "stimulated the dephosphorylation of heavy meromyosin in a similar manner to the dephosphorylation of MLC20"},
      {"measurement": "pEC50", "setting": "PP1c [4]", "value": 8.00},
      {"measurement": "concentration needed to modulate the specificity of PP1c compared to thrombin-cleaved M110-(M1-E309)", "setting": "PP1c [4]", "value": "at least 100 fold higher"},
      {"measurement": "effect on the MLC20 phosphatase activity of PP1c", "setting": "PP1c [4]", "value": "stimulate the MLC20 phosphatase activity of PP1c to the same extent as M110-(M1-E309)"},
      {"measurement": "increase in PP1c activity towards MLC20 (maximal activation)", "setting": "PP1c [4]", "value": 3, "unit": "fold"},
      {"measurement": "peptide concentration at maximal activation of the myosin light chain phosphatase activity of PP1c", "setting": "PP1c [4]", "value": 1, "unit": "µM"},
      {"measurement": "effect on the phosphorylase phosphatase activity of PP1c", "setting": "PP1c [1]", "value": "did not inhibit the phosphorylase phosphatase activity of PP1c"},
      {"measurement": "effect on the phosphorylase phosphatase activity of PP1c", "setting": "PP1c [1]; each peptide individually, at concentrations up to 1 μM", "value": "no effect"}
    ]},
    {"compound": "GST: glutathione-S-transferase [reference compound]", "values": [
      {"measurement": "interaction with PP1 in Far Western experiments", "setting": "PP1c (γ1-isoform)", "value": "did not interact with PP1c"},
      {"measurement": "effect on the MLC20 phosphatase activity of PP1c", "setting": "PP1c [4]", "value": "no effect"},
      {"measurement": "effect on the phosphorylase phosphatase activity of PP1c", "setting": "PP1c [1]", "value": "no effect"}
    ]}
  ]
}
